Reference: article PMC12682947, “Identification of New KCNT1‐Epilepsy Drugs by In Silico, Cell, and Drosophila Modeling” (Annals of Neurology, 2025)
Structures can show the parent of a compound that is named as a salt.

biological target: T1, G288S mutant KCNT1 channels (Homo sapiens, UniProt Q5JUK3, G269S); assay: Inside-out patch clamp of HEK293T cells expressing G288S KCNT1; type: cell-based; conditions: inside-out patches, mean ± SEM
T1 construct: YFP-6His; expressed in transfected cells; host or cells: HEK293T
T1 sequence (Q5JUK3 1-1235 isoform Q5JUK3-3 G288S): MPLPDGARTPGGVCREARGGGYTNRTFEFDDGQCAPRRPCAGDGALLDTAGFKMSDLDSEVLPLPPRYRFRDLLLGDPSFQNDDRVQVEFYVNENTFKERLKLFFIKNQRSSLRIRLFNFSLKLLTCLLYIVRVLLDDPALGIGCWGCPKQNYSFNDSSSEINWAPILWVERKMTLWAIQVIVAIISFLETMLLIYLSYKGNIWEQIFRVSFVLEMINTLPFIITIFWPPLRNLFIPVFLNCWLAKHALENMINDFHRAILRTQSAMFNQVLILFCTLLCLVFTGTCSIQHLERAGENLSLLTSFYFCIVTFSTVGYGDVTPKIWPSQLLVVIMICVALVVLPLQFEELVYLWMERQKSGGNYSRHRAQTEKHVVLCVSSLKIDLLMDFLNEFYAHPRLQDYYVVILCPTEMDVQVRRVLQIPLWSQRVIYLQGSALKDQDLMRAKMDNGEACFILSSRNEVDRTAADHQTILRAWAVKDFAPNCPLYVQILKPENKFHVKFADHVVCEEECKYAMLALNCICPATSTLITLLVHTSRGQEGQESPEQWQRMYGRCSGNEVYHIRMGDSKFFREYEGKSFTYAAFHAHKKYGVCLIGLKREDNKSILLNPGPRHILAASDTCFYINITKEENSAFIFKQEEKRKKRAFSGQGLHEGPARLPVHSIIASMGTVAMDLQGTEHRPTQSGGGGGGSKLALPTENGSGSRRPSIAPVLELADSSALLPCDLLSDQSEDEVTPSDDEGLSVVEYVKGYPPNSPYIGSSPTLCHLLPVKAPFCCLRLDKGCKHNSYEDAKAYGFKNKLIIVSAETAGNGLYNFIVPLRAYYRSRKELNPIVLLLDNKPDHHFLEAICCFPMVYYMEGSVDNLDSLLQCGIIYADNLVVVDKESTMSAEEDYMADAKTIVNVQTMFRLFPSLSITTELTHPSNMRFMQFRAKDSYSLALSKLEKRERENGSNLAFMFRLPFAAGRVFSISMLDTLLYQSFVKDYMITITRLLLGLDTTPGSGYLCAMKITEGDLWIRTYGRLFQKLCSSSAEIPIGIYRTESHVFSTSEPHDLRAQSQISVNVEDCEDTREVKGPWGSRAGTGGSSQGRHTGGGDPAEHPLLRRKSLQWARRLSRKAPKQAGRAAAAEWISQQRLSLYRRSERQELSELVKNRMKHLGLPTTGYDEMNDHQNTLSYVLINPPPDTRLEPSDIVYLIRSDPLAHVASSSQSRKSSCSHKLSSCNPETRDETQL
Description: The CHO cells were cultured in Dulbecco's modified Eagle's Medium (ThermoFisher, UK) supplemented with 10% (v/v) fetal bovine serum, 50 U/ml penicillin and 0.05 mg/ml streptomycin, and incubated at 37°C in 5% CO2 atmosphere. For whole cell recording of WT/Y796H KCNT1, CHO cells were transiently co‐transfected with concatemeric WT/Y796H and EYFP, as described previously.[29] For electrophysiological experiments, cells were plated onto borosilicate glass cover slips and used 2 to 4 days later. Human embryonic kidney 293T cells (HEK293T) were cultured in the same manner, but with medium supplemented with 2 mM L‐glutamine, and 1% (v/v) nonessential amino acids. For excised inside‐out recording of homomeric WT or mutant YFP‐tagged KCNT1, HEK293T cells plated on glass cover slips were transfected using Attractene Transfection Reagent (Qiagen, Germany) according to the manufacturer's instructions and used 2 to 3 days later.
Inside‐out patch clamp recordings were made at room temperature (23°C) from transiently transfected HEK293T cells, as described previously.[11] The pipette solution contained, in mM, 140 NaCl, 4 KCl, 2 CaCl2, 2 MgCl2, and 10 HEPES adjusted to pH 7.4 with NaOH. […] KCNT1 currents were recorded using 2 voltage protocols, depending on the number of active channels in the patch before drug application. Macroscopic currents (number of active channels > 15) were recorded in response to 100 ms voltage ramps between −120 and 120 mV applied every 2 seconds from a holding potential of −78 mV. […] With a lower number of active channels in the patch (3–15), current traces were recorded in response to 15‐second voltage steps to −20, 0, and 20 mV from a holding potential of −78 mV. Currents recorded at each voltage and each drug concentration were averaged over the duration of the trace and normalized to the average amplitudes of the corresponding current traces in drug‐free solution. […] Single channel data were analyzed using Ana software developed by Dr Michael Pusch (Istituto di Biofisica, Genova, Italy; http://users.ge.ibf.cnr.it/pusch/programs-mik.htm). […]

SMILES | IC50
CC(C)c1c(C(=O)Nc2ccccc2)c(-c2ccccc2)c(-c2ccc(F)cc2)n1CC[C@@H](O)C[C@@H](O)CC(=O)O [atorvastatin] | 2600 ± 1600 nM
O=C(OCCN1CCN(c2cccc(C(F)(F)F)c2)CC1)c1ccccc1Nc1ccnc2cc(C(F)(F)F)ccc12 [antrafenine] | 13.3 ± 3.7 nM
Cc1c(O)cccc1C(=O)N[C@@H](CSc1ccccc1)[C@H](O)CN1C[C@H]2CCCC[C@H]2C[C@H]1C(=O)NC(C)(C)C [nelfinavir mesylate] | 9.5 ± 1.8 nM
